In patent US20250051363A1, “Substituted Pyrazolopyridines” (Neuro3 Therapeutics, Inc., priority 2023, published 2025):
Counter-ions that a name gives are not always drawn.

Target: LRRK2 wild-type (Homo sapiens (Human), UniProt Q5S007)
Experiment: LanthaScreen LRRK2 Biochemical Activity Assay
Conditions: human recombinant LRRK2 (amino acids 970-2527) wild-type, ATP 57 μM, TR-FRET; read-out: IC50 (nM), inhibition of LRRK2 wild-type kinase activity
Protocol: The ability of a compound of Formula (I) to inhibit LRRK2 kinase activity is measured using a LanthaScreen™ kinase activity assay. In general, in a LanthaScreen™ kinase activity assay, kinase, fluorescein-labeled substrate, and ATP are allowed to react. Then EDTA (to stop the reaction) and terbium-labeled antibody (to detect phosphorylated product) are added. In a LanthaScreen™ kinase reaction, the antibody associates with the phosphorylated fluorescein labeled substrate resulting in an increased TR-FRET value. The TR-FRET value is a dimensionless number that is calculated as the ratio of the acceptor (fluorescein) signal to the donor (terbium) signal. The amount of antibody that is bound to the tracer is directly proportional to the amount of phosphorylated substrate present, and in this manner, kinase activity can be detected and measured by an increase in the TR-FRET value. Accordingly, in this Example, enzyme reactions are carried out in a kinase reaction buffer in the presence or absence of representative compounds of Formula (I) at various concentrations in 384-well plate at room temperature for 60 minutes. The kinase reaction buffer contains human recombinant LRRK2 protein (amino acids 970-2527, 5 nM), ATP (57 μM for LRRK2 wild-type, 134 μM for G2019S mutant protein), Fluorescein-LRRKtide substrate (0.4 mM), 50 mM Tris pH 7.5, 10 mM MgCl2, 1 mM EGTA, 0.01% Brij™-35, and 2 mM DTT. The final reaction volume for each reaction is 10 μL. The reactions are initated by adding the substrate and stopped by the addition of 10 μL of a TR-FRET dilution buffer supplemented with a kinase quench buffer (10 mM EDTA final) and Tb-anti-pLRRKtide (2 nM final). The plate is further incubated at room temperature for another 60 minutes, and the fluorescent signals are read on an EnVision® multilabel plate reader (PerkinElmer, Waltham, MA) with excitation at 340 nm and emission at 495 and 520 nm. The assay signal is determined as a ratio of FRET-specific signal measured with emission filter at 520 nm to that of the signal measured with Tb-specific emission filter at 495 nm. IC50 values for compound-mediated enzyme inhibition are calculated using appropriate programs in GraphPad Prism software by plotting the logarithm of the compound concentrations versus percent inhibition. All reagents are purchased from Thermo Fisher Scientific.

Chain of LRRK2 wild-type (Q5S007 970-2527): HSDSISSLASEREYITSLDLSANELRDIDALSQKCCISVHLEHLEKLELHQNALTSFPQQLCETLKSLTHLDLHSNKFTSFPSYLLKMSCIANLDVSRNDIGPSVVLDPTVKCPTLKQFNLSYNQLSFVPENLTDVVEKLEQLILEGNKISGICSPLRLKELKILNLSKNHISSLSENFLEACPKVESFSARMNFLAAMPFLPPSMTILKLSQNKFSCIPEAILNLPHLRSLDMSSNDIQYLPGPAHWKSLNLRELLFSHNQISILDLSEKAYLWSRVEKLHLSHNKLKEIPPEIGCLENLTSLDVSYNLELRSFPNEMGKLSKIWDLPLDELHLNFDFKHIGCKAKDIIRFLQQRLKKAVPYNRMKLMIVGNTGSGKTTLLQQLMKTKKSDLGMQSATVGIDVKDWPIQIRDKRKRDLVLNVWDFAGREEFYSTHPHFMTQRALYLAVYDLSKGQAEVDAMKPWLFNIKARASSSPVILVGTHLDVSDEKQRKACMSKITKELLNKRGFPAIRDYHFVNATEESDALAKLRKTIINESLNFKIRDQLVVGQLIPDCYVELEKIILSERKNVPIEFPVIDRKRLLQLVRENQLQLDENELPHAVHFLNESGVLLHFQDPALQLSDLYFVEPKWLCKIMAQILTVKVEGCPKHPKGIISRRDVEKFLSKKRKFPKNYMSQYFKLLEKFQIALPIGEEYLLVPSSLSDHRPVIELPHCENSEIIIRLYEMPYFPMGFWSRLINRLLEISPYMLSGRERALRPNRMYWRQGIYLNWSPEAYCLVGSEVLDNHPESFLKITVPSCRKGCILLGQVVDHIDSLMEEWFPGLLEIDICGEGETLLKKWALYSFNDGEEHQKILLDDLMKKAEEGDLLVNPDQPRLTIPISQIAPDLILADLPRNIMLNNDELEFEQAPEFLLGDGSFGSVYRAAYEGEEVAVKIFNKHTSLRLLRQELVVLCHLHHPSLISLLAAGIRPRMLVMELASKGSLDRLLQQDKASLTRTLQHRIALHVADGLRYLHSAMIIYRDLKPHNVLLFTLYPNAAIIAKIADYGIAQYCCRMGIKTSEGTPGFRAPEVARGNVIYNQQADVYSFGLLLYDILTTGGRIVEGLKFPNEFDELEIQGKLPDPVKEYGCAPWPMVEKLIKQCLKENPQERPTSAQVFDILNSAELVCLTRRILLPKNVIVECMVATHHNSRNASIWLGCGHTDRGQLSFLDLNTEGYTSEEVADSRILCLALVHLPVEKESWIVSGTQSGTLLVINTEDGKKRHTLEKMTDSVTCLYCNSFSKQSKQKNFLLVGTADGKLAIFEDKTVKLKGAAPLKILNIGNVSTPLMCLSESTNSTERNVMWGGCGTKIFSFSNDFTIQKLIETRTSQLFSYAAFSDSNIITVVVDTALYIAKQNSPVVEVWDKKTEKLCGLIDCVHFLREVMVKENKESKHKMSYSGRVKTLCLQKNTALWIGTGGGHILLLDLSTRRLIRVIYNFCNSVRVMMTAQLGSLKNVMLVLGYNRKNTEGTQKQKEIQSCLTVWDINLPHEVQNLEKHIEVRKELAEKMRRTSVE

IC50 [nM] | Structure (SMILES)
11 to 100 | Brc1ccn2ncc(-c3cccc(C4CCCNC4)n3)c2c1 (centres unmarked) [Example 8, 5-bromo-3-[6-(3-piperidyl)-2-pyridyl]pyrazolo[1,5-a]pyridine]
11 to 100 | N#CCCCC(=O)Nc1ccn2ncc(-c3cccc(C4CCCNC4)n3)c2c1 (centres unmarked) [Example 75, 4-cyano-N-(3-(6-(piperidin-3-yl)pyridin-2-yl)pyrazolo[1,5-a]pyridin-5-yl)butanamide]
11 to 100 | C[C@@H]1CN(c2cccc(-c3cnn4ccccc34)n2)CCN1 [Example 69, (R)-3-(6-(3-methylpiperazin-1-yl)pyridin-2-yl)pyrazolo[1,5-a]pyridine formate]
11 to 100 | CNc1ccn2ncc(-c3cc(Cl)cc(N4C[C@@H](C)N[C@@H](C)C4)n3)c2c1 [Example 54, 3-[4-chloro-6-[(3S,5R)-3,5-dimethylpiperazin-1-yl]-2-pyridyl]-N-methyl-pyrazolo[1,5-a]pyridin-5-amine]
11 to 100 | CNc1ccn2ncc(-c3cccc(N4C[C@@H](C)N[C@@H](C)C4)n3)c2c1 [Example 53, 3-[6-[(3S,5R)-3,5-dimethylpiperazin-1-yl]-2-pyridyl]-N-methyl-pyrazolo[1,5-a]pyridin-5-amine]
11 to 100 | CNc1ccn2ncc(-c3cccc(N4CCNCC4)n3)c2c1 [Example 38, N-methyl-3-(6-piperazin-1-yl-2-pyridyl)pyrazolo[1,5-a]pyridin-5-amine]
11 to 100 | COc1ccn2ncc(-c3cccc(C4CCCNC4)n3)c2c1 (centres unmarked) [Example 11, 5-methoxy-3-[6-(3-piperidyl)-2-pyridyl]pyrazolo[1,5-a]pyridine]
101 to 400 | Oc1ccn2ncc(-c3cccc(C4CCCNC4)n3)c2c1 (centres unmarked) [Example 12, 3-(6-(piperidin-3-yl)pyridin-2-yl)pyrazolo[1,5-a]pyridin-5-ol]
≤ 10 | C[C@@H]1CN(c2cc(Cl)cc(-c3cnn4ccc(C(F)(F)F)cc34)n2)C[C@H](C)N1 [Example 56, 3-[4-chloro-6-[(3S,5R)-3,5-dimethylpiperazin-1-yl]-2-pyridyl]-5-(trifluoromethyl)pyrazolo[1,5-a]pyridine]
≤ 10 | CC1(C)CN(c2cccc(-c3cnn4ccc(Cl)cc34)n2)CC(C)(C)N1 [Example 66, 5-chloro-3-[6-(3,3,5,5-tetramethylpiperazin-1-yl)-2-pyridyl]pyrazolo[1,5-a]pyridine]
11 to 100 | C[C@@H]1CN(c2cc(Cl)cc(-c3cnn4ccccc34)n2)C[C@H](C)N1 [Example 51, 3-[4-chloro-6-[(3S,5R)-3,5-dimethylpiperazin-1-yl]-2-pyridyl]pyrazolo[1,5-a]pyridine]
11 to 100 | CNc1ccn2ncc(-c3cc(Cl)cc(N4CCNCC4)n3)c2c1 [Example 39, 3-(4-chloro-6-piperazin-1-yl-2-pyridyl)-N-methyl-pyrazolo[1,5-a]pyridin-5-amine]
11 to 100 | FC(F)(F)c1ccn2ncc(-c3cccc(N4CCNCC4)n3)c2c1 [Example 40, 3-(6-piperazin-1-yl-2-pyridyl)-5-(trifluoromethyl)pyrazolo[1,5-a]pyridine]
11 to 100 | Clc1ccn2ncc(-c3cccc(C4CCNC4)n3)c2c1 (centres unmarked) [Example 4, 5-chloro-3-(6-(pyrrolidin-3-yl)pyridin-2-yl)pyrazolo[1,5-a]pyridine]
101 to 400 | Nc1ccn2ncc(-c3cccc(C4CCCNC4)n3)c2c1 (centres unmarked) [Example 19, 3-[6-(3-piperidyl)-2-pyridyl]pyrazolo[1,5-a]pyridin-5-amine]
11 to 100 | CC(C)Oc1ccn2ncc(-c3cccc(C4CCCNC4)n3)c2c1 (centres unmarked) [Example 13, 5-isopropoxy-3-[6-(3-piperidyl)-2-pyridyl]pyrazolo[1,5-a]pyridine]
11 to 100 | c1cc(-c2cnn3ccc(C4CC4)cc23)nc(C2CCCNC2)c1 (centres unmarked) [Example 18, 5-cyclopropyl-3-[6-(3-piperidyl)-2-pyridyl]pyrazolo[1,5-a]pyridine]
≤ 10 | C[C@@H]1CN(c2nc(-c3cnn4ccc(Cl)cc34)ccc2F)C[C@H](C)N1 [Example 61, 5-chloro-3-[6-[(3S,5R)-3,5-dimethylpiperazin-1-yl]-5-fluoro-2-pyridyl]pyrazolo[1,5-a]pyridine]
11 to 100 | CCNc1ccn2ncc(-c3cccc(C4CCCNC4)n3)c2c1 (centres unmarked) [Example 21, N-ethyl-3-[6-(3-piperidyl)-2-pyridyl]pyrazolo[1,5-a]pyridin-5-amine]
11 to 100 | C[C@@H]1CN(c2cccc(-c3cnn4ccccc34)n2)C[C@@H](C)N1 [Example 50, 3-[6-[(3R,5R)-3,5-dimethylpiperazin-1-yl]-2-pyridyl]pyrazolo[1,5-a]pyridine]
101 to 400 | c1cc(-c2cnn3ccccc23)nc(N2CCNCC2)c1 [Example 37, 3-(6-piperazin-1-yl-2-pyridyl)pyrazolo[1,5-a]pyridine]
11 to 100 | C[C@@H]1CN(c2ccc(F)c(-c3cnn4ccc(Cl)cc34)n2)C[C@H](C)N1 [Example 64, 5-chloro-3-[6-[(3S,5R)-3,5-dimethylpiperazin-1-yl]-3-fluoro-2-pyridyl]pyrazolo[1,5-a]pyridine]

The next lines start with the compound.

Structure (SMILES) | IC50 [nM]
CS(=O)(=O)NCC(=O)N1CCCC(c2cccc(-c3cnn4ccccc34)n2)C1 (centres unmarked) [Example 25, N-[2-oxo-2-[3-(6-pyrazolo[1,5-a]pyridin-3-yl-2-pyridyl)-1-piperidyl]ethyl]methanesulfonamide] | 101 to 400
Clc1cc(-c2cnn3ccccc23)nc(C2CCCNC2)c1 (centres unmarked) [Example 28, 3-(4-chloro-6-(piperidin-3-yl)pyridin-2-yl)pyrazolo[1,5-a]pyridine] | 11 to 100
Clc1cc(-c2cnn3ccc(Cl)cc23)nc(C2CCCNC2)c1 (centres unmarked) [Example 34, 5-chloro-3-[4-chloro-6-(3-piperidyl)-2-pyridyl]pyrazolo[1,5-a]pyridine] | 11 to 100
CN1CCC(c2cccc(-c3cnn4ccccc34)n2)CC1 [Example 2, 3-[6-(1-methyl-4-piperidyl)-2-pyridyl]pyrazolo[1,5-a]pyridine] | 101 to 400
O=C(Nc1ccn2ncc(-c3cccc(C4CCCNC4)n3)c2c1)c1ccccn1 (centres unmarked) [Example 72, N-(3-(6-(piperidin-3-yl)pyridin-2-yl)pyrazolo[1,5-a]pyridin-5-yl)picolinamide] | 11 to 100
CC(C)Oc1ccn2ncc(-c3cc(Cl)cc(C4CCCNC4)n3)c2c1 (centres unmarked) [Example 65, 3-[4-chloro-6-(3-piperidyl)-2-pyridyl]-5-isopropoxy-pyrazolo[1,5-a]pyridine] | ≤ 10
O=C(Cc1ccccn1)Nc1ccn2ncc(-c3cccc(C4CCCNC4)n3)c2c1 (centres unmarked) [Example 81, N-(3-(6-(piperidin-3-yl)pyridin-2-yl)pyrazolo[1,5-a]pyridin-5-yl)-2-(pyridin-2-yl)acetamide] | 11 to 100
Fc1cc(-c2cnn3ccc(Cl)cc23)nc(N2CCNCC2)c1 [Example 44, 5-chloro-3-(4-fluoro-6-piperazin-1-yl-2-pyridyl)pyrazolo[1,5-a]pyridine] | 11 to 100
CS(=O)(=O)NCCC(=O)Nc1ccc2c(-c3cccc(C4CCCNC4)n3)cnn2c1 (centres unmarked) [Example 23, 3-(methanesulfonamido)-N-[3-[6-(3-piperidyl)-2-pyridyl]pyrazolo[1,5-a]pyridin-6-yl]propanamide] | 101 to 400
Clc1ccc(C2CCCNC2)nc1-c1cnn2ccccc12 (centres unmarked) [Example 30, 3-(3-chloro-6-(piperidin-3-yl)pyridin-2-yl)pyrazolo[1,5-a]pyridine] | 101 to 400
Clc1ccc(-c2cnn3ccccc23)nc1C1CCCNC1 (centres unmarked) [Example 29, 3-[5-chloro-6-(3-piperidyl)-2-pyridyl]pyrazolo[1,5-a]pyridine] | 11 to 100
Fc1ccc(-c2cnn3ccccc23)nc1C1CCCNC1 (centres unmarked) [Example 33, 3-[5-fluoro-6-(3-piperidyl)-2-pyridyl]pyrazolo[1,5-a]pyridine] | 101 to 400
c1cc(-c2cnn3ccccc23)nc(C2CCNCC2)c1 [Example 1, 3-[6-(4-piperidyl)-2-pyridyl]pyrazolo[1,5-a]pyridine] | 101 to 400
c1cc(-c2cnn3ccccc23)nc(N2CC3CC(C2)N3)c1 [Example 45, 3-[6-(3,6-Diazabicyclo[3.1.1]heptan-3-yl)-2-pyridyl]pyrazolo[1,5-a]pyridine] | 101 to 400
N#Cc1ccn2ncc(-c3cccc(C4CCCNC4)n3)c2c1 (centres unmarked) [Example 17, 3-[6-(3-piperidyl)-2-pyridyl]pyrazolo[1,5-a]pyridine-5-carbonitrile] | 11 to 100
O=C(COc1ccccn1)Nc1ccn2ncc(-c3cccc(C4CCCNC4)n3)c2c1 (centres unmarked) [Example 73, N-(3-(6-(piperidin-3-yl)pyridin-2-yl)pyrazolo[1,5-a]pyridin-5-yl)-2-(pyridin-2-yloxy)acetamide] | 11 to 100
